In patent US20160303245A1, “FATTY ACID DERIVATIVES OF DIMERIC INHIBITORS OF PSD-95” (UNIVERSITY OF COPENHAGEN, priority 2013, published 2016):
Values joined by “and” are separate entries in the source; they are usually repeats but may differ in a detail not shown here. Equal entries are not always repeated. Where two headings read alike, the source gives them in different places.

How the values were obtained:
[1] = molecular target: T1, HSA (Homo sapiens, UniProt P02768); assay: Transil XL HSA binding assay (immobilized HSA, unbound compound quantified by RP-HPLC)
T1 construct: purchased Sovicell GMBH, Leipzig, Germany
Experimental: The synthesized FA-linked dimeric ligands (1-12) were evaluated for their HSA affinity using a Transil^XL HSA binding assay kit (Sovicell GMBH, Leipzig, Germany). […] The assay kit consisted of prefilled wells with increasing concentrations of immobilized HSA as well as two control wells without HSA. The HSA had been immobilized in a random fashion to ensure that all binding sites on HSA were available. To conduct the assay, the wells were incubated with a known concentration of the tested compounds, and the unbound amount of compound was quantified using analytical RP-HPLC (C8 column). The fraction of unbound drug (fu) for each data point was calculated from the RP-HPLC data by comparison to a control sample without HSA. […] In eq. 1, it is assumed that the concentration of drug-bound HSA ([HSA-D]) is much lower than the total concentration of HSA in the well ([HSA-D]<<cHSA). The assay kit has been designed such that the assumption is valid for compounds where fu>1%. The calculated KD-values were used to calculate fb at physiological concentration of HSA (588 μM) using equation 2.

[2] = molecular target: PSD-95 PDZ1-2 (Homo sapiens, UniProt P78352); assay: In vitro fluorescence polarization (FP) competition binding assay, in TBS and modified with 1% HSA
Experimental: Affinity to PSD-95 was measured using an in vitro fluorescence polarization (FP) assay as described by Bach et al (PNAS USA, 2012, 109, 3317-3322). First, a saturation binding curve was obtained to determine KD values for the interaction between a dimeric fluorescent probe and PSD-95 PDZ1-2. Increasing concentrations of PDZ1-2 were added to a constant concentration (0.5 nM) of the probe. The fluorescence polarization of the samples was measured at excitation/emission wavelengths of 635/670 nm and the FP values were fitted to a one site binding model using the program GraphPad Prism. […] The FP values were fitted to a one site competition (variable slope) model in GraphPad Prism. The resulting IC50 were converted to competition inhibition constants, Ki values, as described (Nikolovska-Coleska et al, Anal Biochem, 2004, 332, 261-273). The modified FP assay was conducted as described above with 1% HSA in the assay. The synthesized FA-linked dimeric ligands were evaluated for their affinity to PSD-95 PDZ1-2 in the FP assay. […] We first measured the affinities using a simple tris-buffered saline (TBS) buffer (Table 2, FIG. 3A); but furthermore, we investigated if HSA influenced the ability of the FA-linked dimers to bind PSD95 PDZ1-2 by conducting the FP assay with HSA present in the assay buffer (Table 2, FIG. 3B). […] For a traditional small-molecule drug, it is commonly accepted that the unbound fraction of the drug is free to diffuse across membranes and exerts the physiological effect by interacting with its target (Berezhkovskiy et al, J Pharm Sci 2007, 96, 249-257). I.e. if the drug is bound to another molecule, then it cannot interact with the target at the same time.

[3] = FP in TBS with 1% HSA (~150 μM), mean ± SEM, n ≧ 3, read-out: Ki(PSD95) + HSA

T1 sequence (P02768 25-609): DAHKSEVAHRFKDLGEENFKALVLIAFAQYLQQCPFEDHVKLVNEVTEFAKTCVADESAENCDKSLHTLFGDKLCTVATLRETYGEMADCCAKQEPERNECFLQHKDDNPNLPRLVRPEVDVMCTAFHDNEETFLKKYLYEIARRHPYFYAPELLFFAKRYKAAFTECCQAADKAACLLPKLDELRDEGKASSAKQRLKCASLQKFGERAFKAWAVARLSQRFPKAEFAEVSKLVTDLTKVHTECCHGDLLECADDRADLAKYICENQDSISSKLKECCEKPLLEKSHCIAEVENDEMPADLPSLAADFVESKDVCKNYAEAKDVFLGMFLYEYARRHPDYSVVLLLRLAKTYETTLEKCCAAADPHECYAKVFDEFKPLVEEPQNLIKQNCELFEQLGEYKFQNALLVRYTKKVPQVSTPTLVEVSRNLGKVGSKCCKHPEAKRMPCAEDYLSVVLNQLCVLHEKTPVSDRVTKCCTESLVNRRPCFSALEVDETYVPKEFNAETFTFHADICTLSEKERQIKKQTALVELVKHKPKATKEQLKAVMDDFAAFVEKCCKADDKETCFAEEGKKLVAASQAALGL
Chain of PSD-95 PDZ1-2 (P78352 61-249 limits assumed): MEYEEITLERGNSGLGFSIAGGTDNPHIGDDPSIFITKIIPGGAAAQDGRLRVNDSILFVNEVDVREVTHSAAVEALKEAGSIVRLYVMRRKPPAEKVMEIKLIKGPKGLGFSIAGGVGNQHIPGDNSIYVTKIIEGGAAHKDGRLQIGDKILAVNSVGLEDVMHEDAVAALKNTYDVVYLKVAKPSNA

## CC[C@H](C)[C@H](NC(=O)CCOCCOCCN(CCOCCOCCC(=O)N[C@H](C(=O)N[C@@H](CCC(=O)O)C(=O)N[C@H](C(=O)N[C@@H](C)C(=O)N[C@H](C(=O)O)C(C)C)[C@@H](C)O)[C@@H](C)CC)C(=O)CCCNC(=O)CCCCCCCCCCC(=O)O)C(=O)N[C@@H](CCC(=O)O)C(=O)N[C@H](C(=O)N[C@@H](C)C(=O)N[C@H](C(=O)O)C(C)C)[C@@H](C)O [Compound 2]
[1]
  fraction unbound: 0.247

## CCCCCCCCCCCCCCCCCC(=O)NCCCC(=O)N(CCOCCOCCC(=O)N[C@H](C(=O)N[C@@H](CCC(=O)O)C(=O)N[C@H](C(=O)N[C@@H](C)C(=O)N[C@H](C(=O)O)C(C)C)[C@@H](C)O)[C@@H](C)CC)CCOCCOCCC(=O)N[C@H](C(=O)N[C@@H](CCC(=O)O)C(=O)N[C@H](C(=O)N[C@@H](C)C(=O)N[C@H](C(=O)O)C(C)C)[C@@H](C)O)[C@@H](C)CC [Compound 3]
[1]
  Kd: 4.8 µM
  fraction unbound: 0.031
[2]; FP data (TBS+HSA) corrected for calculated fu, read-out: Ki(PSD95), free ligand
  Ki: 0.0572 µM
[2]; [3]
  Ki: 1.89 ± 0.155 µM
[2]; FP in TBS, mean ± SEM, n ≧ 3, read-out: Ki(PSD95)
  Ki: 0.0111 µM

## CCCCCCCCCCCC(=O)N[C@@H](CCC(=O)N(CCOCCOCCC(=O)N[C@H](C(=O)N[C@@H](CCC(=O)O)C(=O)N[C@H](C(=O)N[C@@H](C)C(=O)N[C@H](C(=O)O)C(C)C)[C@@H](C)O)[C@@H](C)CC)CCOCCOCCC(=O)N[C@H](C(=O)N[C@@H](CCC(=O)O)C(=O)N[C@H](C(=O)N[C@@H](C)C(=O)N[C@H](C(=O)O)C(C)C)[C@@H](C)O)[C@@H](C)CC)C(=O)O [Compound 5]
[1]
  fraction unbound: 0.147

## CC[C@H](C)[C@H](NC(=O)CCOCCOCCN(CCOCCOCCC(=O)N[C@H](C(=O)N[C@@H](CCC(=O)O)C(=O)N[C@H](C(=O)N[C@@H](C)C(=O)N[C@H](C(=O)O)C(C)C)[C@@H](C)O)[C@@H](C)CC)C(=O)CC[C@H](NC(=O)CCCCCCCCCCC(=O)O)C(=O)O)C(=O)N[C@@H](CCC(=O)O)C(=O)N[C@H](C(=O)N[C@@H](C)C(=O)N[C@H](C(=O)O)C(C)C)[C@@H](C)O [Compound 6]
[1]
  fraction unbound: 0.301

## CC[C@H](C)[C@H](NC(=O)CCOCCOCCN(CCOCCOCCC(=O)N[C@H](C(=O)N[C@@H](CCC(=O)O)C(=O)N[C@H](C(=O)N[C@@H](C)C(=O)N[C@H](C(=O)O)C(C)C)[C@@H](C)O)[C@@H](C)CC)C(=O)CC[C@H](NC(=O)CCCCCCCCCCCCCCCCC(=O)O)C(=O)O)C(=O)N[C@@H](CCC(=O)O)C(=O)N[C@H](C(=O)N[C@@H](C)C(=O)N[C@H](C(=O)O)C(C)C)[C@@H](C)O [Compound 8]
[1]
  fraction unbound: 0.186

## CCCCCCCCCCCC(=O)NCCCCC(=O)N(CCOCCOCCC(=O)N[C@H](C(=O)N[C@@H](CCC(=O)O)C(=O)N[C@H](C(=O)N[C@@H](C)C(=O)N[C@H](C(=O)O)C(C)C)[C@@H](C)O)[C@@H](C)CC)CCOCCOCCC(=O)N[C@H](C(=O)N[C@@H](CCC(=O)O)C(=O)N[C@H](C(=O)N[C@@H](C)C(=O)N[C@H](C(=O)O)C(C)C)[C@@H](C)O)[C@@H](C)CC [Compound 9]
[1]
  fraction unbound: 0.271

## CC[C@H](C)[C@H](NC(=O)CCOCCOCCN(CCOCCOCCC(=O)N[C@H](C(=O)N[C@@H](CCC(=O)O)C(=O)N[C@H](C(=O)N[C@@H](C)C(=O)N[C@H](C(=O)O)C(C)C)[C@@H](C)O)[C@@H](C)CC)C(=O)CCCCNC(=O)CCCCCCCCCCC(=O)O)C(=O)N[C@@H](CCC(=O)O)C(=O)N[C@H](C(=O)N[C@@H](C)C(=O)N[C@H](C(=O)O)C(C)C)[C@@H](C)O [Compound 10]
[1]
  fraction unbound: 0.615

## CCCCCCCCCCCCCCCCCC(=O)NCCCCC(=O)N(CCOCCOCCC(=O)N[C@H](C(=O)N[C@@H](CCC(=O)O)C(=O)N[C@H](C(=O)N[C@@H](C)C(=O)N[C@H](C(=O)O)C(C)C)[C@@H](C)O)[C@@H](C)CC)CCOCCOCCC(=O)N[C@H](C(=O)N[C@@H](CCC(=O)O)C(=O)N[C@H](C(=O)N[C@@H](C)C(=O)N[C@H](C(=O)O)C(C)C)[C@@H](C)O)[C@@H](C)CC [Compound 11]
[1]
  fraction unbound: 0.078
[2]; [3]
  Ki: 1.89 ± 0.1 µM

## CC[C@H](C)[C@H](NC(=O)CCOCCOCCN(CCOCCOCCC(=O)N[C@H](C(=O)N[C@@H](CCC(=O)O)C(=O)N[C@H](C(=O)N[C@@H](C)C(=O)N[C@H](C(=O)O)C(C)C)[C@@H](C)O)[C@@H](C)CC)C(=O)CCCCNC(=O)CCCCCCCCCCCCCCCCC(=O)O)C(=O)N[C@@H](CCC(=O)O)C(=O)N[C@H](C(=O)N[C@@H](C)C(=O)N[C@H](C(=O)O)C(C)C)[C@@H](C)O [Compound 12]
[1]
  fraction unbound: 0.083

## CC[C@H](C)[C@H](NC(=O)CCOCCOCCN(CCOCCOCCC(=O)N[C@H](C(=O)N[C@@H](CCC(=O)O)C(=O)N[C@H](C(=O)N[C@@H](CC(=O)O)C(=O)N[C@H](C(=O)O)C(C)C)[C@@H](C)O)[C@@H](C)CC)C(=O)CCCNC(=O)CCCCCCCCCCCCCCCCC(=O)O)C(=O)N[C@@H](CCC(=O)O)C(=O)N[C@H](C(=O)N[C@@H](CC(=O)O)C(=O)N[C@H](C(=O)O)C(C)C)[C@@H](C)O [Compound 14]
[1]
  Kd: 116 ± 7.6 µM
  fraction unbound: 0.436

## CCCCCCCCCCCCCCCCCC(=O)N[C@@H](CCC(=O)N(CCOCCOCCC(=O)N[C@H](C(=O)N[C@@H](CCC(=O)O)C(=O)N[C@H](C(=O)N[C@@H](CC(=O)O)C(=O)N[C@H](C(=O)O)C(C)C)[C@@H](C)O)[C@@H](C)CC)CCOCCOCCC(=O)N[C@H](C(=O)N[C@@H](CCC(=O)O)C(=O)N[C@H](C(=O)N[C@@H](CC(=O)O)C(=O)N[C@H](C(=O)O)C(C)C)[C@@H](C)O)[C@@H](C)CC)C(=O)O [Compound 15]
[1]
  Kd: 55 ± 3.4 µM
  fraction unbound: 0.268

## CC[C@H](C)[C@H](NC(=O)CCOCCOCCN(CCOCCOCCC(=O)N[C@H](C(=O)N[C@@H](CCC(=O)O)C(=O)N[C@H](C(=O)N[C@@H](CC(=O)O)C(=O)N[C@H](C(=O)O)C(C)C)[C@@H](C)O)[C@@H](C)CC)C(=O)[C@H](CCCNC(=N)N)NC(=O)[C@H](CCCNC(=N)N)NC(=O)[C@H](CCCNC(=N)N)NC(=O)[C@H](CCC(N)=O)NC(=O)[C@H](CCCNC(=N)N)NC(=O)[C@H](CCCNC(=N)N)NC(=O)[C@H](CCCCN)NC(=O)[C@H](CCCCN)NC(=O)[C@H](CCCNC(=N)N)NC(=O)CNC(=O)[C@@H](N)Cc1ccc(O)cc1)C(=O)N[C@@H](CCC(=O)O)C(=O)N[C@H](C(=O)N[C@@H](CC(=O)O)C(=O)N[C@H](C(=O)O)C(C)C)[C@@H](C)O [UCCB01-144, reference compound]
[1]; calculated from KD at physiological concentration of HSA (588 μM), equation 2
  fb (%), HSA bound fraction: 65% and 65.3 ± 2.9%
[1]; calculated from equation 2 at HSA concentration of 150 μM, read-out: fu (%), calculated fraction of unbound drug
  fraction unbound: 0.679
[1]; mean ± SEM, n = 3, read-out: KD(HSA)
  Kd: 318 µM
